Assay results published in the supplement of paper PMC10307832.

Experiments:
Test in all cases: relative viability (nuclei count vs DMSO), 5 days (fraction); higher = more cells survive
[1] = compound: NC(=O)[C@@H](CCC(F)(F)F)N(Cc1ccc(-c2ncon2)cc1F)S(=O)(=O)c1ccc(Cl)cc1 [Avagacestat] + CC(C)C[C@H](NC(=O)[C@H](Cc1ccccc1)NC(=O)c1cnccn1)B(O)O [Bortezomib] (partner 0.002 µM)
Summary of the method: (§1)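 Each reported value is a median over duplicate plates. It expresses relative viability: treated-well nuclei count divided by vehicle-well nuclei count. Lung cancer cell lines in 1536-well plates were dosed by pin tool a day after seeding, alone with one drug or with a fixed anchor-drug dose plus five library-drug doses (not always all listed) in √10 steps, and nuclei were counted after 5 days.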

[2] = compound: NC(=O)[C@@H](CCC(F)(F)F)N(Cc1ccc(-c2ncon2)cc1F)S(=O)(=O)c1ccc(Cl)cc1 [Avagacestat] + CC1(C)CCC(c2ccc(Cl)cc2)=C(CN2CCN(c3ccc(C(=O)NS(=O)(=O)c4ccc(N[C@H](CCN5CCOCC5)CSc5ccccc5)c(S(=O)(=O)C(F)(F)F)c4)cc3)CC2)C1 [Navitoclax] (partner 0.5 µM)
Summary of the method: as §1

[3] = compound: NC(=O)[C@@H](CCC(F)(F)F)N(Cc1ccc(-c2ncon2)cc1F)S(=O)(=O)c1ccc(Cl)cc1 [Avagacestat] + Cc1nc(Nc2ncc(C(=O)Nc3c(C)cccc3Cl)s2)cc(N2CCN(CCO)CC2)n1 [Dasatinib] (partner 0.075 µM)
Summary of the method: as §1

[4] = compound: NC(=O)[C@@H](CCC(F)(F)F)N(Cc1ccc(-c2ncon2)cc1F)S(=O)(=O)c1ccc(Cl)cc1 [Avagacestat] + CCNC(=O)c1noc(-c2cc(C(C)C)c(O)cc2O)c1-c1ccc(CN2CCOCC2)cc1 [Luminespib] (partner 0.01 µM)
Summary of the method: as §1

Cell Line	relative viability ([1]; first compound 0.08 µM)	relative viability ([1]; first compound 0.253 µM)	relative viability ([1]; first compound 0.8 µM)	relative viability ([1]; first compound 2.53 µM)	relative viability ([1]; first compound 8 µM)	relative viability ([2]; first compound 0.08 µM)	relative viability ([2]; first compound 0.253 µM)	relative viability ([2]; first compound 0.8 µM)	relative viability ([2]; first compound 2.53 µM)	relative viability ([2]; first compound 8 µM)	relative viability ([3]; first compound 0.08 µM)	relative viability ([3]; first compound 0.253 µM)	relative viability ([3]; first compound 0.8 µM)	relative viability ([3]; first compound 2.53 µM)	relative viability ([3]; first compound 8 µM)	relative viability ([4]; first compound 0.08 µM)	relative viability ([4]; first compound 0.253 µM)	relative viability ([4]; first compound 0.8 µM)	relative viability ([4]; first compound 2.53 µM)	relative viability ([4]; first compound 8 µM)
NCI-H1734	1.26	1.01	1.01	1.01	0.945	1.11	0.96	0.875	0.777	0.724	0.545	0.542	0.48	0.471	0.432	0.219	0.179	0.212	0.202	0.175
NCI-H1755	0.996	1.11	1.07	0.967	0.937	1.08	1.21	1.09	0.959	0.943	0.445	0.357	0.234	0.389	0.334	0.72	0.55	0.418	0.697	0.386
NCI-H1792	1.6	1.06	1.37	0.832	0.766	1.25	0.584	1.13	0.538	0.417	1.33		0.666		0.706	0.649	0.478	0.522	0.414	0.33
NCI-H1915	1.02	1.11	1.13	1	0.951	0.84	0.812	0.798	0.807	0.828	0.305	0.308	0.279	0.313	0.341	1.07	1.18	1.01	0.745	0.669
NCI-H1975	0.382	0.343	0.415	0.327	0.318	1.26	1.28	1.25	1.07	1.02	0.395	0.478	0.386	0.402	0.384	0.216	0.164	0.207	0.182	0.154
NCI-H1993	1.37	1.35	1.47	1.27	1.3	1.08	0.995	1.09	0.905	1.04	0.53	0.549	0.586	0.491	0.538	0.93	0.91	1.04	0.752	0.842
NCI-H2009	1.04	1.03	1.07	1.02	0.828	1.27	1.23	1.17	1.12	1.13	0.323	0.274	0.282	0.257	0.229	1.13	1.03	1.2	1.04	0.901
NCI-H2023	1.13	1.1	1.08	0.886	0.808	1.14	1.28	1.12	0.834	0.894	0.564	0.643	0.563	0.419	0.422	1.06	0.862	0.952	0.514	0.762
